# Source: PubChem BioAssay AID2060885 (Molecular Pharmacology Branch, DTP, NCI, 2025)
# pIC50: −log10 of the molar value.
# System: NCI-H23 complex spheroids with HUVEC/MSC, viability
# Experiment: Anticancer human tumor NCI-H23 cell line growth inhibition [RAS];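 also: spheroids exposed to compound for 7 days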;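 as to viability, T/C: 100% = DMSO vehicle control viability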
# Details: for viability, T/C: stronger effect = lower value
# Outline: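 Multi-cell-type spheroids: tumor cells plus HUVEC endothelial cells and mesenchymal stem cells. RAS-pathway inhibitors were combined with targeted agents, each dosed in half-log steps down from clinical Cmax, or from 10 microM when Cmax was unknown.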
# [1] = curve of first compound, second compound 0.000949 µM
# [2] = curve of first compound, second compound 0.003 µM
# [3] = curve of first compound, second compound 0.00949 µM
# [4] = curve of first compound, second compound 0.03 µM
# [5] = curve of first compound, second compound 0.0949 µM
# [6] = curve of first compound, second compound 0.3 µM
# [7] = second compound 0.000949 µM, first compound 0.0316 µM
# [8] = second compound 0.000949 µM, first compound 0.1 µM
# [9] = second compound 0.000949 µM, first compound 0.316 µM
# [10] = second compound 0.000949 µM, first compound 1 µM
# [11] = second compound 0.000949 µM, first compound 3.16 µM
# [12] = second compound 0.000949 µM, first compound 10 µM
# [13] = second compound 0.003 µM, first compound 0.0316 µM
# [14] = second compound 0.003 µM, first compound 0.1 µM
# [15] = second compound 0.003 µM, first compound 0.316 µM
# [16] = second compound 0.003 µM, first compound 1 µM
# [17] = second compound 0.003 µM, first compound 3.16 µM
# [18] = second compound 0.003 µM, first compound 10 µM
# [19] = second compound 0.00949 µM, first compound 0.0316 µM
# [20] = second compound 0.00949 µM, first compound 0.1 µM
# [21] = second compound 0.00949 µM, first compound 0.316 µM
# [22] = second compound 0.00949 µM, first compound 1 µM
# [23] = second compound 0.00949 µM, first compound 3.16 µM
# [24] = second compound 0.00949 µM, first compound 10 µM
# [25] = second compound 0.03 µM, first compound 0.0316 µM
# [26] = second compound 0.03 µM, first compound 0.1 µM
# [27] = second compound 0.03 µM, first compound 0.316 µM
# [28] = second compound 0.03 µM, first compound 1 µM
# [29] = second compound 0.03 µM, first compound 3.16 µM
# [30] = second compound 0.03 µM, first compound 10 µM
# [31] = second compound 0.0949 µM, first compound 0.0316 µM
# [32] = second compound 0.0949 µM, first compound 0.1 µM
# [33] = second compound 0.0949 µM, first compound 0.316 µM
# [34] = second compound 0.0949 µM, first compound 1 µM
# [35] = second compound 0.0949 µM, first compound 3.16 µM
# [36] = second compound 0.0949 µM, first compound 10 µM
# [37] = second compound 0.3 µM, first compound 0.0316 µM
# [38] = second compound 0.3 µM, first compound 0.1 µM
# [39] = second compound 0.3 µM, first compound 0.316 µM
# [40] = second compound 0.3 µM, first compound 1 µM
# [41] = second compound 0.3 µM, first compound 3.16 µM
# [42] = second compound 0.3 µM, first compound 10 µM
smiles,measurement,setting,value
Cc1nc(N2CCC3(CC2)COC(C)C3N)c(CO)nc1Sc1ccnc(N)c1Cl (stereo not drawn) + CCn1c(-c2cc(N3CCN(C)CC3)cnc2C(C)OC)c2c3cc(ccc31)-c1csc(n1)CC(NC(=O)C1CC1C)C(=O)N1CCCC(N1)C(=O)OCC(C)(C)C2,pIC50,[1],> 7.50
same,pIC50,[2],> 7.50
same,pIC50,[3],> 7.50
same,pIC50,[4],> 7.50
same,pIC50,[5],> 7.50
same,pIC50,[6],> 7.50
same,"viability, T/C",[7],40.2%
same,"viability, T/C",[8],33.2%
same,"viability, T/C",[9],22.9%
same,"viability, T/C",[10],26.2%
same,"viability, T/C",[11],18.7%
same,"viability, T/C",[12],13.7%
same,"viability, T/C",[13],35%
same,"viability, T/C",[14],25.4%
same,"viability, T/C",[15],21.2%
same,"viability, T/C",[16],21%
same,"viability, T/C",[17],15%
same,"viability, T/C",[18],10.5%
same,"viability, T/C",[19],30.2%
same,"viability, T/C",[20],19.9%
same,"viability, T/C",[21],20%
same,"viability, T/C",[22],17.1%
same,"viability, T/C",[23],11.5%
same,"viability, T/C",[24],7.55%
same,"viability, T/C",[25],24.4%
same,"viability, T/C",[26],22.5%
same,"viability, T/C",[27],18%
same,"viability, T/C",[28],14.1%
same,"viability, T/C",[29],8.53%
same,"viability, T/C",[30],7.44%
same,"viability, T/C",[31],17.3%
same,"viability, T/C",[32],17.8%
same,"viability, T/C",[33],14.6%
same,"viability, T/C",[34],10.8%
same,"viability, T/C",[35],7.63%
same,"viability, T/C",[36],7.62%
same,"viability, T/C",[37],17.4%
same,"viability, T/C",[38],17.8%
same,"viability, T/C",[39],12.3%
same,"viability, T/C",[40],9.93%
same,"viability, T/C",[41],7.11%
same,"viability, T/C",[42],5.57%
CC(=O)OC12COC1CC(O)C1(C)C(=O)C(O)C3=C(C)C(OC(=O)C(O)C(NC(=O)OC(C)(C)C)c4ccccc4)CC(O)(C(OC(=O)c4ccccc4)C21)C3(C)C (stereo not drawn),"viability, T/C",compound 0.0316 µM,31.2% [middle of 4 runs]
same,"viability, T/C",compound 0.1 µM,32.3% [middle of 4 runs]
same,"viability, T/C",compound 0.316 µM,28.2% [middle of 4 runs]
same,"viability, T/C",compound 1 µM,34.6% [middle of 4 runs]
same,"viability, T/C",compound 3.16 µM,50.4% [middle of 4 runs]
same,"viability, T/C",compound 10 µM,63.5% [middle of 4 runs]
same,pIC50,curve of compound,> 7.50
C[C@@H](NC(=O)c1ncnc(N)c1Cl)c1ncc(C(=O)Nc2cc(C(F)(F)F)c(Cl)cn2)s1 + CCn1c(-c2cc(N3CCN(C)CC3)cnc2C(C)OC)c2c3cc(ccc31)-c1csc(n1)CC(NC(=O)C1CC1C)C(=O)N1CCCC(N1)C(=O)OCC(C)(C)C2,pIC50,[1],5.82
same,pIC50,[2],> 7.50
same,pIC50,[3],> 7.50
same,pIC50,[4],> 7.50
same,pIC50,[5],> 7.50
same,pIC50,[6],> 7.50
same,"viability, T/C",[7],51.5%
same,"viability, T/C",[8],54.4%
same,"viability, T/C",[9],46.1%
same,"viability, T/C",[10],48.4%
same,"viability, T/C",[11],49.9%
same,"viability, T/C",[12],25%
same,"viability, T/C",[13],39.7%
same,"viability, T/C",[14],33%
same,"viability, T/C",[15],33.9%
same,"viability, T/C",[16],37.2%
same,"viability, T/C",[17],38.5%
same,"viability, T/C",[18],24.6%
same,"viability, T/C",[19],35.3%
same,"viability, T/C",[20],29.5%
same,"viability, T/C",[21],32.5%
same,"viability, T/C",[22],32.8%
same,"viability, T/C",[23],31.7%
same,"viability, T/C",[24],27%
same,"viability, T/C",[25],29.4%
same,"viability, T/C",[26],27.8%
same,"viability, T/C",[27],31.3%
same,"viability, T/C",[28],30.7%
same,"viability, T/C",[29],29.3%
same,"viability, T/C",[30],25.2%
same,"viability, T/C",[31],21.1%
same,"viability, T/C",[32],22.3%
same,"viability, T/C",[33],26.3%
same,"viability, T/C",[34],28.4%
same,"viability, T/C",[35],21.8%
same,"viability, T/C",[36],24.2%
same,"viability, T/C",[37],22.6%
same,"viability, T/C",[38],24.4%
same,"viability, T/C",[39],24.2%
same,"viability, T/C",[40],22.7%
same,"viability, T/C",[41],25.4%
same,"viability, T/C",[42],21.9%
C=CC(=O)Nc1cc(Nc2nccc(-c3cn(C)c4ccccc34)n2)c(OC)cc1N(C)CCN(C)C + C=CC(=O)N1CCN(c2nc(OCC3CCCN3C)nc3c(F)c(-c4nc(N)cc(C)c4C(F)(F)F)c(Cl)cc23)C(C)C1,pIC50,"curve of first compound, second compound 0.00316 µM",6.00
same,pIC50,"curve of first compound, second compound 0.01 µM",8.12
same,pIC50,"curve of first compound, second compound 0.0316 µM",8.44
same,pIC50,"curve of first compound, second compound 0.1 µM",> 8.50
same,pIC50,"curve of first compound, second compound 0.316 µM",> 8.50
same,pIC50,"curve of first compound, second compound 1 µM",> 8.50
same,"viability, T/C","second compound 0.00316 µM, first compound 0.00316 µM",66.1%
same,"viability, T/C","second compound 0.00316 µM, first compound 0.01 µM",83.2%
same,"viability, T/C","second compound 0.00316 µM, first compound 0.0316 µM",56.1%
same,"viability, T/C","second compound 0.00316 µM, first compound 0.1 µM",53.5%
same,"viability, T/C","second compound 0.00316 µM, first compound 0.316 µM",57.2%
same,"viability, T/C","second compound 0.00316 µM, first compound 1 µM",49.6%
same,"viability, T/C","second compound 0.01 µM, first compound 0.00316 µM",51.5%
same,"viability, T/C","second compound 0.01 µM, first compound 0.01 µM",52.9%
same,"viability, T/C","second compound 0.01 µM, first compound 0.0316 µM",45.1%
same,"viability, T/C","second compound 0.01 µM, first compound 0.1 µM",36.9%
same,"viability, T/C","second compound 0.01 µM, first compound 0.316 µM",43.1%
same,"viability, T/C","second compound 0.01 µM, first compound 1 µM",37.1%
same,"viability, T/C","second compound 0.0316 µM, first compound 0.00316 µM",49.4%
same,"viability, T/C","second compound 0.0316 µM, first compound 0.01 µM",48.3%
same,"viability, T/C","second compound 0.0316 µM, first compound 0.0316 µM",40.4%
same,"viability, T/C","second compound 0.0316 µM, first compound 0.1 µM",35.2%
same,"viability, T/C","second compound 0.0316 µM, first compound 0.316 µM",37.1%
same,"viability, T/C","second compound 0.0316 µM, first compound 1 µM",33.6%
same,"viability, T/C","second compound 0.1 µM, first compound 0.00316 µM",45%
same,"viability, T/C","second compound 0.1 µM, first compound 0.01 µM",39.4%
same,"viability, T/C","second compound 0.1 µM, first compound 0.0316 µM",33.8%
same,"viability, T/C","second compound 0.1 µM, first compound 0.1 µM",34.4%
same,"viability, T/C","second compound 0.1 µM, first compound 0.316 µM",29.6%
same,"viability, T/C","second compound 0.1 µM, first compound 1 µM",27.3%
same,"viability, T/C","second compound 0.316 µM, first compound 0.00316 µM",44.7%
same,"viability, T/C","second compound 0.316 µM, first compound 0.01 µM",43%
same,"viability, T/C","second compound 0.316 µM, first compound 0.0316 µM",34%
same,"viability, T/C","second compound 0.316 µM, first compound 0.1 µM",32%
same,"viability, T/C","second compound 0.316 µM, first compound 0.316 µM",29.4%
same,"viability, T/C","second compound 0.316 µM, first compound 1 µM",35.5%
same,"viability, T/C","second compound 1 µM, first compound 0.00316 µM",39.2%
same,"viability, T/C","second compound 1 µM, first compound 0.01 µM",41.5%
same,"viability, T/C","second compound 1 µM, first compound 0.0316 µM",36.9%
same,"viability, T/C","second compound 1 µM, first compound 0.1 µM",34.9%
same,"viability, T/C","second compound 1 µM, first compound 0.316 µM",30.9%
same,"viability, T/C","second compound 1 µM, first compound 1 µM",28.3%
